Experimental data taken from ChEMBL document CHEMBL3509549.

Tests used:
[1] = Mean exposure of saquinavir mesylate estimated by Cmax following oral repeat dosing of 1000 mg Invirase Hard Gel Capsules capsules in healthy men; format: ADME, organism-based; settings: male, human, plasma
[2] = Maximum Tmax of saquinavir mesylate following oral repeat dosing of 1000 mg Invirase Film-coated tablet in healthy human; format: ADME, organism-based; settings: both, plasma, read-out: Maximum Tmax
[3] = Maximum Tmax of saquinavir mesylate following oral repeat dosing of 1000 mg Invirase Hard Gel Capsules capsules in healthy human; format: ADME, organism-based; settings: both, plasma, read-out: Maximum Tmax
[4] = Minimum Tmax of saquinavir mesylate following oral repeat dosing of 1000 mg Invirase Hard Gel Capsules capsules in healthy human; format: ADME, organism-based, Plasma; settings: in vivo
[5] = Median Tmax of saquinavir mesylate following oral repeat dosing of 1000 mg Invirase Hard Gel Capsules capsules in healthy human; format: ADME, organism-based; settings: both, plasma, read-out: Median Tmax
[6] = Mean exposure of saquinavir mesylate estimated by AUC(0-infinity) following oral repeat dosing of 1000 mg Invirase Film-coated tablet in healthy men; format: ADME, organism-based; settings: male, human, plasma, read-out: AUC(0-infinity)
[7] = Mean exposure of saquinavir mesylate estimated by Cmax following oral repeat dosing of 1000 mg Invirase Film-coated tablet in healthy men; format: ADME, organism-based; settings: male, human, plasma
[8] = Mean exposure of saquinavir mesylate estimated by AUC(0-infinity) following oral repeat dosing of 1000 mg Invirase Film-coated tablet in healthy woman; format: ADME, organism-based; settings: female, human, plasma, read-out: AUC(0-infinity)
[9] = Geometric mean of Cmax of saquinavir mesylate following oral repeat dosing of 1000 mg Invirase Film-coated tablet in healthy human; format: ADME, organism-based; settings: both, plasma
clinical [10] = settings: both, human, plasma, po, 1000 mg
[11] = Geometric mean of Cmax of saquinavir mesylate following oral repeat dosing of 1000 mg Invirase Hard Gel Capsules capsules in healthy human; format: ADME, organism-based; settings: both, plasma
[12] = Arithmetic mean of Cmax of saquinavir mesylate following oral repeat dosing of 1000 mg Invirase Hard Gel Capsules capsules in healthy human; format: ADME, organism-based; settings: both, plasma
[13] = Mean exposure of saquinavir mesylate estimated by AUC(0-infinity) following oral repeat dosing of 1000 mg Invirase Hard Gel Capsules capsules in healthy woman; format: ADME, organism-based; settings: female, human, plasma, read-out: AUC(0-infinity)
[14] = Arithmetic mean of AUC(0-infinity) of saquinavir mesylate following oral repeat dosing of 1000 mg Invirase Film-coated tablet in healthy human; format: ADME, organism-based; settings: both, plasma, read-out: AUC(0-infinity)
[15] = Minimum Tmax of saquinavir mesylate following oral repeat dosing of 1000 mg Invirase Film-coated tablet in healthy human; format: ADME, organism-based; settings: both, plasma, read-out: Minimum Tmax
[16] = Mean exposure of saquinavir mesylate estimated by Cmax following oral repeat dosing of 1000 mg Invirase Hard Gel Capsules capsules in healthy human; format: ADME, organism-based; settings: both, plasma
[17] = Mean exposure of saquinavir mesylate estimated by Cmax following oral repeat dosing of 1000 mg Invirase Film-coated tablet in healthy woman; format: ADME, organism-based; settings: female, human, plasma
[18] = Mean exposure of saquinavir mesylate estimated by AUC(0-infinity) following oral repeat dosing of 1000 mg Invirase Hard Gel Capsules capsules in healthy men; format: ADME, organism-based; settings: male, human, plasma, read-out: AUC(0-infinity)
[19] = Geometric mean of AUC(0-infinity) of saquinavir mesylate following oral repeat dosing of 1000 mg Invirase Film-coated tablet in healthy human; format: ADME, organism-based; settings: both, plasma, read-out: AUC(0-infinity)
clinical [20] = settings: both, human, plasma, po, 1000 mg; remark: listed apart in the source
[21] = Arithmetic mean of Cmax of saquinavir mesylate following oral repeat dosing of 1000 mg Invirase Film-coated tablet in healthy human; format: ADME, organism-based; settings: both, plasma
clinical [22] = settings: both, human, plasma, po, 1000 mg; remark: listed apart in the source
[23] = Median Tmax of saquinavir mesylate following oral repeat dosing of 1000 mg Invirase Film-coated tablet in healthy human; format: ADME, organism-based; settings: both, plasma, read-out: Median Tmax
clinical [24] = settings: both, human, plasma, po, 1000 mg; remark: listed apart in the source
[25] = Arithmetic mean of AUC(0-infinity) of saquinavir mesylate following oral repeat dosing of 1000 mg Invirase Hard Gel Capsules capsules in healthy human; format: ADME, organism-based; settings: both, plasma, read-out: AUC(0-infinity)
[26] = Mean exposure of saquinavir mesylate estimated by Cmax following oral repeat dosing of 1000 mg Invirase Film-coated tablet in healthy human; format: ADME, organism-based; settings: both, plasma
[27] = Mean exposure of saquinavir mesylate estimated by Cmax following oral repeat dosing of 1000 mg Invirase Hard Gel Capsules capsules in healthy woman; format: ADME, organism-based; settings: female, human, plasma

SMILES: CC(C)(C)NC(=O)[C@@H]1C[C@@H]2CCCC[C@@H]2CN1C[C@@H](O)[C@H](Cc1ccccc1)NC(=O)[C@H](CC(N)=O)NC(=O)c1ccc2ccccc2n1
- Cmax [1]: 265 ng/mL
- Tmax [2]: 6 h
- Tmax [3]: 10 h
- Minimum Tmax [4]: 1 h
- Tmax [5]: 4.37 h
- AUC(0-inf) [6]: 1030 ng·h/mL
- Cmax [7]: 278 ng/mL
- AUC(0-inf) [8]: 1480 ng·h/mL
- Cmax [9]: 332 ng/mL
- half-life (clinical [10]): 7.89 h
- Cmax [11]: 285 ng/mL
- Cmax [12]: 348 ng/mL
- AUC(0-inf) [13]: 1090 ng·h/mL
- AUC(0-inf) [14]: 1510 ng·h/mL
- Tmax [15]: 1.02 h
- Cmax [16]: 285 ng/mL
- Cmax [17]: 395 ng/mL
- AUC(0-inf) [18]: 1040 ng·h/mL
- AUC(0-inf) [19]: 1240 ng·h/mL
- half-life (clinical [20]): 8.29 h
- Cmax [21]: 404 ng/mL
- half-life (clinical [22]): 7.73 h
- Tmax [23]: 3.88 h
- half-life (clinical [24]): 7.51 h
- AUC(0-inf) [25]: 1190 ng·h/mL
- Cmax [26]: 332 ng/mL
- Cmax [27]: 306 ng/mL
